Assay results as given in patent US20120214760A1, “TREATMENT OF URINARY TRACT INFECTIONS WITH ANTIBACTERIAL AMINOGLYCOSIDE COMPOUNDS” (Achaogen, Inc., priority 2009, published 2012).
Converted amounts (≈) assume the structure as drawn. Where two headings read alike, the source gives them in different places.

Tests used:
[1] = system: P. aeruginosa ATCC 27853 (APAE001); experiment: MIC, CLSI broth microdilution; format: cell-based; details: Pseudomonas aeruginosa
Experimental: (§1) Minimum inhibitory concentrations (MIC) were determined by reference Clinical and Laboratory Standards Institute (CLSI) broth microdilution methods per M7-A7 [2006]. Quality control ranges utilizing E. coli ATCC 25922, P. aeruginosa ATCC 27853 and S. aureus ATCC 29213, and interpretive criteria for comparator agents were as published in CLSI M100-S17 [2007]. Briefly, serial two-fold dilutions of the test compounds were prepared at 2× concentration in Mueller Hinton Broth. The compound dilutions were mixed in 96-well assay plates in a 1:1 ratio with bacterial inoculum. The inoculum was prepared by suspension of a colony from an agar plate that was prepared the previous day. Bacteria were suspended in sterile saline and added to each assay plate to obtain a final concentration of 5×10^5 CFU/mL. The plates were incubated at 35° C. for 20 hours in ambient air.

[2] = system: E. coli ATCC 25922 (AECO001); experiment: MIC, CLSI broth microdilution; format: cell-based; details: Escherichia coli
Experimental: as §1

[3] = ATCC27853, read-out: MIC APAE001, Table 1, APAE001 is ATCC27853
[4] = ATCC25922, read-out: MIC AECO001, Table 1, AECO001 is ATCC25922

Compound	MIC [1, 3] [µg/mL]	MIC [2, 4] [µg/mL]	MIC ([1]; ATCC27853, Table 2, read-out: MIC P. aeruginosa) [µg/mL]	MIC ([2]; ATCC25922, Table 2, read-out: MIC E. coli) [µg/mL]	MIC ([2]; Table 1, AECO001 is ATCC25922, read-out: MIC AECO001) [µg/mL]
CN[C@@H]1[C@@H](O)[C@@H](O[C@@H]2[C@@H](O)[C@H](O[C@H]3OC(CNCC(O)CO)=CC[C@H]3N)[C@@H](N)C[C@H]2NC(=O)[C@@H](O)CN)OC[C@]1(C)O (stereo partly drawn) [Example 14, 6′-(2-Hydroxy-propanol)-1-(3-amino-2(S)-hydroxy-propionyl)-sisomicin]	1 to 16 (≈ 1.64 to 26.3 µM)	1 to 16 (≈ 1.64 to 26.3 µM)	–	–	–
CN[C@@H]1[C@@H](O)[C@@H](O[C@@H]2[C@@H](O)[C@H](O[C@H]3OC(CN)=CC[C@H]3NC(=O)C(N)CCCN)[C@@H](N)C[C@H]2NC(=O)[C@@H](O)CCN)OC[C@]1(C)O (stereo partly drawn) [Example 99, 2′-(2,5-Diamino-pentoyl)-1-(4-amino-2(S)-hydroxy-butyryl)-sisomicin]	1 to 16 (≈ 1.51 to 24.1 µM)	1 to 16 (≈ 1.51 to 24.1 µM)	–	–	–
CN[C@@H]1[C@@H](O)[C@@H](O[C@@H]2[C@@H](O)[C@H](O[C@H]3OC(CNC[C@H](O)CO)=CC[C@H]3N)[C@@H](N)C[C@H]2NC(=O)[C@@H](O)CCN)OC[C@]1(C)O [Example 28, 6′-(2(S)-Hydroxy-propanol)-1-(4-amino-2(S)-hydroxy-butyryl)-sisomicin]	1 to 16 (≈ 1.61 to 25.7 µM)	1 to 16 (≈ 1.61 to 25.7 µM)	–	–	–
CN[C@@H]1[C@@H](O)[C@@H](O[C@@H]2[C@@H](O)[C@H](O[C@H]3OC(CNCC4CC4)=CC[C@H]3N)[C@@H](N)C[C@H]2NC(=O)C(O)C2CNC2)OC[C@]1(C)O (some centres unmarked) [Example 71, 6′-Methylcyclopropyl-1-(2-(azetidin-3-yl)-2-hydroxy-acetyl)-sisomicin]	> 16	1 to 16 (≈ 1.63 to 26 µM)	–	–	–
CN[C@@H]1[C@@H](O)[C@@H](O[C@@H]2[C@@H](O)[C@H](O[C@H]3OC(CNC[C@H]4C[C@@H](N)[C@@H](O)C4)=CC[C@H]3N)[C@@H](N)C[C@H]2NC(=O)[C@@H](O)CN)OC[C@]1(C)O [Example 69, 6′-(Methyl-1(R)-amino-2(S)-hydroxy-cyclopent-4(S)-yl)-1-(3-amino-2(S)-hydroxy-propionyl)-sisomicin]	1 to 16 (≈ 1.54 to 24.7 µM)	< 1	–	–	–
CN[C@@H]1[C@@H](O)[C@@H](O[C@@H]2[C@@H](O)[C@H](O[C@H]3OC(CNCC(O)CO)=CC[C@H]3N)[C@@H](N)C[C@H]2NC(=O)[C@H](O)CCN)OC[C@]1(C)O (stereo partly drawn) [Example 3, 6′-(2-Hydroxy-propanol)-1-(4-amino-2(R)-hydroxy-butyryl)-sisomicin]	> 16	1 to 16 (≈ 1.61 to 25.7 µM)	–	–	–
CN[C@@H]1[C@@H](O)[C@@H](O[C@@H]2[C@@H](O)[C@H](O[C@H]3OC(CNCC(O)CO)=CC[C@H]3N)[C@@H](N)C[C@H]2NC(=O)CO)OC[C@]1(C)O (some centres unmarked) [Example 23, 6′-(2-Hydroxy-propanol)-1-(2-hydroxy-acetyl)-sisomicin]	> 16	> 16	–	–	–
CN[C@@H]1[C@@H](O)[C@@H](O[C@@H]2[C@@H](O)[C@H](O[C@H]3OC(CNCC(O)CN)=CC[C@H]3N)[C@@H](N)C[C@H]2NC(=O)[C@@H](O)CN)OC[C@]1(C)O (stereo partly drawn) [Example 22, 6′-(3-Amino-2-hydroxy-propyl)-1-(3-amino-2(S)-hydroxy-propionyl)-sisomicin]	–	–	1 to 16 (≈ 1.65 to 26.3 µM)	1 to 16 (≈ 1.65 to 26.3 µM)	1 to 16 (≈ 1.65 to 26.3 µM)
CN[C@@H]1[C@@H](O)[C@@H](O[C@@H]2[C@@H](O)[C@H](O[C@H]3OC(CNCC(O)C(N)=O)=CC[C@H]3N)[C@@H](N)C[C@H]2NC(=O)[C@@H](O)CN)OC[C@]1(C)O (stereo partly drawn) [Example 21, 6′-(2-Hydroxy-3-propionamide)-1-(3-amino-2(S)-hydroxy-propionyl)-sisomicin]	1 to 16 (≈ 1.61 to 25.7 µM)	1 to 16 (≈ 1.61 to 25.7 µM)	–	–	–
CN[C@@H]1[C@@H](O)[C@@H](O[C@@H]2[C@@H](O)[C@H](O[C@H]3OC(CNCCO)=CC[C@H]3N)[C@@H](N)C[C@H]2NC(=O)C(O)C2CNC2)OC[C@]1(C)O (some centres unmarked) [Example 75, 6′-(2-Hydroxy-ethyl)-1-(2-(azetidin-3-yl)-2-hydroxy-acetyl)-sisomicin]	> 16	1 to 16 (≈ 1.65 to 26.5 µM)	–	–	–
CN[C@@H]1[C@@H](O)[C@@H](O[C@@H]2[C@@H](O)[C@H](O[C@H]3OC(CN)=CC[C@H]3NCCCCN)[C@@H](N)C[C@H]2NC(=O)[C@@H](O)CCN)OC[C@]1(C)O [Example 102, 2′-(4-Amino-butyl)-1-(4-amino-2(S)-hydroxy-butyryl)-sisomicin]	1 to 16 (≈ 1.61 to 25.8 µM)	< 1	–	–	–
